Measurements as given in paper PMC9606955, “In Vitro Activity of Essential Oils Distilled from Colombian Plants against Candida auris and Other Candida Species with Different Antifungal Susceptibility Profiles” (Molecules, 2022).

What was measured:
Assay in all cases: MIC, CLSI M27 broth microdilution
[1] = tested on: C. krusei ATCC 6258; type: cell-based, Candida krusei; details: C. krusei ATCC 6258, antifungal drugs
From the text: (§1) The fungal strains used in this study were C. albicans ATCC 10231, C. albicans ATCC 64550, C. parapsilosis ATCC 22019, C. tropicalis ATCC 750, C. tropicalis ATCC 200956 (resistant to azoles and AMB), C. glabrata LMDM 34 (resistant to echinocandins), C. metapsilosis MUM 15.12, C. orthopsilosis MUM 17.13, C. lusitaniae MUM 17.08, C. krusei ATCC 6258 (Issatchenkia orientalis ATCC 6258), and C. auris CDC B11903. Additionally, nine clinical isolates were included: C. parapsilosis Synlab 406 (FLC-resistant) and eight C. auris isolates identified by MALDI-TOF MS (Bruker Daltonics, Bremen, Germany) according to Zhao et al.. These yeasts were cultured on Sabouraud Dextrose Agar (SDA; Sigma-Aldrich, St. Louis, MO, USA) for 24 h at 35 °C.
(§2) Antifungal susceptibility testing was performed according to Clinical and Laboratory Standards Institute M27, 4th Edition (CLSI standard M27, 4th Edition). Some modifications were applied for evaluation of the antifungal activity of EOs and terpenes. Initially, a screening was carried out to determine the antifungal activity of the EOs and of commercial terpenes. Stock concentrations of EOs and terpenes were prepared at 512 µg/mL and an inoculum of 2.5 × 10^3 CFU/mL of each yeast was prepared in RPMI 1640-MOPS (Sigma- Aldrich St. Louis, MO, USA). Thereafter, 100 µL of each stock solution of EOs or terpenes was dispensed in 96-well microdilution plates (Corning®, Costar®, NY, USA) and 100 µL of each yeast inoculum was added. […] Microdilution plates were incubated at 35 °C and, after 24 h, the presence or absence of growth was visually checked using a manual mirror viewer and then compared with the amount of growth in the control (no EO or terpene). Compounds able to inhibit yeast growth were tested to determine the minimal inhibitory concentration (MIC) as follows: 100 µL of 10 two-fold dilutions of the EOs or commercial terpenes was dispensed in 96-well microplates and the yeast inoculum was added. Final concentrations of the EOs or terpenes ranged from 0.5 µg/mL to 256 µg/mL. Microdilution plates were incubated at 35 °C for 24 h. MICs were visually determined at the lowest concentration that produced visual inhibition compared to the growth control. The assays were performed at least three times in duplicate on different days. The results were expressed as geometric means (GM) and ranges. As an antifungal susceptibility testing control, the activity of ITC and AMB against the reference strains C. krusei ATCC 6258 and C. parapsilosis ATCC 22019 was evaluated in all experiments following the CLSI standard M27, 4th Edition. It was mandatory that the MIC values remained in the accepted range.

[2] = tested on: C. orthopsilosis MUM 17.13; type: cell-based, Candida orthopsilosis; details: C. orthopsilosis MUM 17.13, antifungal drugs
From the text: as §1, §2

[3] = tested on: C. lusitaniae MUM 17.08; type: cell-based, Candida lusitaniae; details: C. lusitaniae MUM 17.08, antifungal drugs
From the text: as §1, §2

[4] = tested on: C. metapsilosis MUM 15.12; type: cell-based, Candida metapsilosis; details: C. metapsilosis MUM 15.12, antifungal drugs
From the text: as §1, §2

[5] = tested on: C. glabrata LMDM 34; type: cell-based, Candida glabrata
From the text: as §1, §2

[6] = tested on: C. parapsilosis Synlab 406; type: cell-based, Candida parapsilosis; details: C. parapsilosis Synlab 406, antifungal drugs
From the text: as §1, §2

[7] = tested on: C. parapsilosis ATCC 22019; type: cell-based, Candida parapsilosis; details: antifungal drugs
From the text: as §1, §2

[8] = tested on: C. auris Ca 32; type: cell-based, Candida auris; details: C. auris Ca 32, antifungal drugs
From the text: as §1, §2

[9] = tested on: C. auris CDC B11903; type: cell-based, Candida auris; details: C. auris CDCB11903, antifungal drugs
From the text: as §1, §2

[10] = tested on: C. auris Ca 10; type: cell-based, Candida auris; details: antifungal drugs
From the text: as §1, §2

[11] = tested on: C. auris Ca 41; type: cell-based, Candida auris; details: C. auris Ca 41, antifungal drugs
From the text: as §1, §2

[12] = tested on: C. auris Ca 46; type: cell-based, Candida auris; details: C. auris Ca 46, antifungal drugs
From the text: as §1, §2

[13] = tested on: C. auris Ca 17; type: cell-based, Candida auris; details: C. auris Ca 17, antifungal drugs
From the text: as §1, §2

[14] = tested on: C. auris Ca 1; type: cell-based, Candida auris; details: C. auris Ca 1, antifungal drugs
From the text: as §1, §2

[15] = tested on: C. auris Ca 45; type: cell-based, Candida auris; details: C. auris Ca 45, antifungal drugs
From the text: as §1, §2

[16] = tested on: C. auris Ca 9; type: cell-based, Candida auris; details: C. auris Ca 9, antifungal drugs
From the text: as §1, §2

[17] = tested on: C. albicans ATCC 10231; type: cell-based, Candida albicans; details: antifungal drugs
From the text: as §1, §2

[18] = tested on: C. albicans ATCC 64550; type: cell-based, Candida albicans; details: antifungal drugs
From the text: as §1, §2

[19] = tested on: C. tropicalis ATCC 200956; type: cell-based, Candida tropicalis; details: C. tropicalis ATCC 200956, antifungal drugs
From the text: as §1, §2

[20] = tested on: C. tropicalis ATCC 750; type: cell-based, Candida tropicalis; details: antifungal drugs
From the text: as §1, §2

CC[C@H](C)C[C@H](C)CCCCCCCCC(=O)N[C@H]1C[C@@H](O)[C@@H](NCCN)NC(=O)[C@@H]2[C@@H](O)CCN2C(=O)[C@H]([C@H](O)CCN)NC(=O)[C@H]([C@H](O)[C@@H](O)c2ccc(O)cc2)NC(=O)[C@@H]2C[C@@H](O)CN2C(=O)[C@H]([C@@H](C)O)NC1=O [CSF, caspofungin]
resistance: susceptibility category ([5]; resistance confirmed)
0.25 to 0.5 µg/mL: MIC Range [18] | MIC Range [20]
0.5 to 1 µg/mL: MIC Range [10]
8 µg/mL: MIC ([5]; Nakaseomyces glabratus, LMDM34, geometric mean, antifungal drugs) | MIC Range ([5]; antifungal drugs)
0.35 µg/mL: MIC ([18]; Candida albicans, ATCC64550, geometric mean) | MIC ([20]; Candida tropicalis, ATCC750, geometric mean)
2 µg/mL: MIC Range [6] | MIC ([6]; Lodderomyces parapsilosis, SYNLAB406, geometric mean, read-out: MIC GM)
0.12 to 0.25 µg/mL: MIC Range [17]
0.5 µg/mL: MIC Range [8] | MIC ([8]; Candidozyma auris, CA32, geometric mean, read-out: MIC GM) | MIC Range [9] | MIC ([9]; Candidozyma auris, geometric mean, read-out: MIC GM) | MIC Range [11] | MIC ([11]; Candidozyma auris, CA41, geometric mean, read-out: MIC GM) | MIC Range [12] | MIC ([12]; Candidozyma auris, CA46, geometric mean, read-out: MIC GM) | MIC Range [13] | MIC ([13]; Candidozyma auris, CA17, geometric mean, read-out: MIC GM) | MIC Range [14] | MIC ([14]; Candidozyma auris, CA1, geometric mean, read-out: MIC GM) | MIC Range [15] | MIC ([15]; Candidozyma auris, CA45, geometric mean, read-out: MIC GM) | MIC Range [16] | MIC ([16]; Candidozyma auris, CA9, geometric mean, read-out: MIC GM) | MIC Range [19] | MIC ([19]; Candida tropicalis, ATCC200956, geometric mean, read-out: MIC GM)
1 µg/mL: MIC Range [1] | MIC ([1]; Pichia kudriavzevii, ATCC6258, geometric mean, read-out: MIC GM) | MIC Range [2] | MIC ([2]; Lodderomyces orthopsilosis, MUM17.13, geometric mean, read-out: MIC GM) | MIC Range [3] | MIC ([3]; Clavispora lusitaniae, MUM17.08, geometric mean, read-out: MIC GM) | MIC Range [4] | MIC ([4]; Lodderomyces metapsilosis, MUM15.12, geometric mean, read-out: MIC GM) | MIC ([7]; Lodderomyces parapsilosis, ATCC22019, geometric mean) | MIC Range [7]
0.18 µg/mL: MIC ([17]; Candida albicans, ATCC10231, geometric mean)
0.7 µg/mL: MIC ([10]; Candidozyma auris, CA10, geometric mean)
